Tests used:
Assay in all cases: Minimum Inhibitory Concentration (MIC) Test, serial dilution
Type in all cases: cell-based
[1] = system: Aspergillus niger ATCC 16404; conditions: A. niger; weight percent of active ingredients; propylene glycol solvent
Experimental: (§1) The Minimum Inhibitory Concentration (MIC) Test is an in vitro serial dilution procedure to assess antimicrobial activity. The MIC of a substance is the minimum concentration that will inhibit the growth of test organisms. Two species each of bacteria and fungi were included in the evaluation.
(§2) Cultiloop™ transfer cultures were used, and the bacteria were cultured on Brain Heart Infusion agar for 24 hours at 37° C. A saline suspension of each bacterial species was prepared and standardized on the spectrophotometer to the organism inoculum concentration. The yeast culture (Candida) was grown on a slant of Saboraud Dextrose agar for 48 hours at 27° C., and the slant was then washed with saline to prepare the inoculum. The mold culture (Aspergillus) was incubated for 7-10 days at 27° C. until sporulation occurred. The mold inoculum was prepared by washing the mature slant and harvesting the spores after filtration through sterile gauze.
(§3) The results are summarized in the Table below, where the concentrations refer to the weight percents of active ingredients.

[2] = system: Burkholderia cepacia ATCC 25416; conditions: B. cepacia; weight percent of active ingredients; propylene glycol solvent
Experimental: as §1, §2, §3

[3] = system: Candida albicans ATCC 10231; conditions: C. albicans; weight percent of active ingredients; propylene glycol solvent
Experimental: as §1, §2, §3

[4] = system: Staphylococcus aureus ATCC 6538; conditions: S. aureus; weight percent of active ingredients; propylene glycol solvent
Experimental: as §1, §2, §3

| SMILES | MIC Cidal [1] | MIC Static [1] | MIC Cidal [2] | MIC Static [2] | MIC Cidal [3] | MIC Static [3] | MIC Cidal [4] | MIC Static [4] |
| --- | --- | --- | --- | --- | --- | --- | --- | --- |
| N#CCCC(Br)(C#N)CBr (stereo not shown) [Merguard ®, 1,2-dibromo-2,4-dicyanobutane] | <0.05% | <0.05% | <0.05% | <0.05% | <0.05% | <0.05% | <0.05% | <0.05% |
| CC(Br)(C#N)CCC#N (stereo not shown) [Compound II, 2-bromo-2-methylglutaronitrile] | 0.10% | <0.05% | <0.05% | <0.05% | <0.05% | <0.05% | 0.10% | <0.05% |

Reference: US6562993B1, “Preservative compounds” (ISP Investments Inc., priority 2002, dated 2003)
